Values after ≈ are worked out from the molar mass of the structure shown.
System: herpes simplex virus type 2
Assay: in vitro antiviral testing against herpes simplex virus type 2 (MIC by standard serial dilution)
Assay type: cell-based
Details: Human alphaherpesvirus 2, herpes simplex virus type 2 (herpes 2), read-out: minimal inhibitory concentration (MIC)
Method: They are useful in combatting viruses present on inanimate surfaces as well as viral infections in animal organisms. […] The MIC values were determined by standard serial dilution procedures.

SMILES	MIC
CCc1noc(CC)c1CCCCCCOc1ccc(Br)cc1 [Example 6, 4-[6-(4-Bromophenoxy)hexyl]-3,5-diethylisoxazole]	12 µg/mL (≈ 31.6 µM)
CCc1noc(CC)c1CCCCOc1ccc(OC)cc1Cl [Example 7, 4-[4-(2-Chloro-4-methoxyphenoxy)butyl]-3,5-diethylisoxazole]	6 µg/mL (≈ 17.8 µM)
CCc1noc(CC)c1CCCCCCCOc1ccc(OC)cc1Cl [Example 8, 4-[7-(2-Chloro-4-methoxyphenoxy)heptyl]-3,5-diethylisoxazole]	> 25 µg/mL
CCc1noc(CC)c1CCCCCCOc1ccc(OC)cc1[N+](=O)[O-] [Example 5, 3,5-Diethyl-4-[6-(4-methoxy-2-nitrophenoxy)hexyl]isoxazole]	3 µg/mL (≈ 7.97 µM)
CCc1noc(CC)c1CCCCCCOc1ccc(OC)cc1Cl [Example 1, 4-[6-(2-Chloro-4-methoxyphenoxy)hexyl]-3,5-diethylisoxazole]	6 µg/mL (≈ 16.4 µM)
CCc1noc(CC)c1Cc1ccc(OC)cc1 [Example 3, 3,5-Diethyl-4-[(4-methoxyphenyl)methyl]isoxazole]	25 µg/mL (≈ 102 µM)
CCc1noc(CC)c1Cc1ccc(OC)cc1Cl [Example 4, 4-[(2-Chloro-4-methoxyphenyl)methyl]-3,5-diethylisoxazole]	12 µg/mL (≈ 42.9 µM)
CCc1noc(CC)c1Cc1ccc(C)cc1 [Example 2, 3,5-Diethyl-4-[(4-methylphenyl)methyl]isoxazole]	1.5 µg/mL (≈ 6.54 µM)

Source: patent US4268678A, “4-(Arylaliphatic)isoxazoles” (Sterling Drug Inc., priority 1979, dated 1981)
